From the CheMixHub viscosity set
“And” between values parts separate entries of the source, which are not always exact repeats. Equal values may be shown once. ± gives the uncertainty stated by the source.

Experiment: xn = mol fraction of the nth substance listed

CCCCNCCO + CCCCOCCO
viscosity
Details | 293.15 K | 298.15 K | 303.15 K | 308.15 K | 313.15 K | 318.15 K | 323.15 K
101.3 kPa, x1 = 0.404 | 7.13 ± 0.15 mPa·s | 5.95 ± 0.13 mPa·s | 5.02 ± 0.11 mPa·s | 4.27 ± 0.09 mPa·s | 3.67 ± 0.08 mPa·s | 3.18 ± 0.07 mPa·s | 2.77 ± 0.06 mPa·s
101.3 kPa, x1 = 0.604 | 10.3 ± 0.22 mPa·s | 8.4 ± 0.18 mPa·s | 6.94 ± 0.15 mPa·s | 5.8 ± 0.12 mPa·s | 4.89 ± 0.1 mPa·s | 4.17 ± 0.09 mPa·s | 3.58 ± 0.08 mPa·s
101.33 kPa, x1 = 0.1 | 3.94 ± 0.09 mPa·s and 3.941 ± 0.085 mPa·s | 3.4 ± 0.08 mPa·s and 3.405 ± 0.074 mPa·s | 2.96 ± 0.07 mPa·s and 2.963 ± 0.064 mPa·s | 2.6 ± 0.06 mPa·s and 2.598 ± 0.056 mPa·s | 2.29 ± 0.05 mPa·s and 2.294 ± 0.053 mPa·s | 2.04 ± 0.05 mPa·s and 2.038 ± 0.052 mPa·s | 1.82 ± 0.04 mPa·s and 1.821 ± 0.052 mPa·s
101.33 kPa, x1 = 0.2 | 4.813 ± 0.11 mPa·s | 4.111 ± 0.089 mPa·s | 3.541 ± 0.076 mPa·s | 3.075 ± 0.066 mPa·s | 2.69 ± 0.058 mPa·s | 2.369 ± 0.053 mPa·s | 2.099 ± 0.053 mPa·s
101.33 kPa, x1 = 0.3 | 5.87 ± 0.13 mPa·s and 5.865 ± 0.13 mPa·s | 4.95 ± 0.11 mPa·s and 4.952 ± 0.11 mPa·s | 4.22 ± 0.09 mPa·s and 4.221 ± 0.091 mPa·s | 3.63 ± 0.08 mPa·s and 3.629 ± 0.078 mPa·s | 3.15 ± 0.07 mPa·s and 3.146 ± 0.068 mPa·s | 2.75 ± 0.06 mPa·s and 2.746 ± 0.059 mPa·s | 2.41 ± 0.05 mPa·s and 2.414 ± 0.053 mPa·s
101.33 kPa, x1 = 0.4 | 7.135 ± 0.16 mPa·s | 5.951 ± 0.13 mPa·s | 5.019 ± 0.11 mPa·s | 4.272 ± 0.092 mPa·s | 3.669 ± 0.079 mPa·s | 3.176 ± 0.068 mPa·s | 2.77 ± 0.059 mPa·s
101.33 kPa, x1 = 0.5 | 8.57 ± 0.19 mPa·s and 8.573 ± 0.18 mPa·s | 7.07 ± 0.16 mPa·s and 7.072 ± 0.15 mPa·s | 5.9 ± 0.13 mPa·s and 5.901 ± 0.13 mPa·s | 4.98 ± 0.11 mPa·s and 4.975 ± 0.11 mPa·s | 4.24 ± 0.09 mPa·s and 4.236 ± 0.091 mPa·s | 3.64 ± 0.08 mPa·s and 3.638 ± 0.078 mPa·s | 3.15 ± 0.07 mPa·s and 3.149 ± 0.068 mPa·s
101.33 kPa, x1 = 0.6 | 10.3 ± 0.22 mPa·s | 8.404 ± 0.18 mPa·s | 6.94 ± 0.15 mPa·s | 5.796 ± 0.12 mPa·s | 4.891 ± 0.11 mPa·s | 4.166 ± 0.089 mPa·s | 3.58 ± 0.077 mPa·s
101.33 kPa, x1 = 0.7 | 12.21 ± 0.26 mPa·s | 9.853 ± 0.21 mPa·s | 8.056 ± 0.17 mPa·s | 6.668 ± 0.14 mPa·s | 5.582 ± 0.12 mPa·s | 4.719 ± 0.1 mPa·s | 4.027 ± 0.086 mPa·s
101.33 kPa, x1 = 0.8 | 14.41 ± 0.31 mPa·s | 11.5 ± 0.25 mPa·s | 9.314 ± 0.2 mPa·s | 7.641 ± 0.16 mPa·s | 6.345 ± 0.14 mPa·s | 5.326 ± 0.11 mPa·s | 4.514 ± 0.097 mPa·s
101.33 kPa, x1 = 0.9 | 16.91 ± 0.36 mPa·s | 13.36 ± 0.29 mPa·s | 10.72 ± 0.23 mPa·s | 8.718 ± 0.19 mPa·s | 7.183 ± 0.15 mPa·s | 5.985 ± 0.13 mPa·s | 5.042 ± 0.11 mPa·s

CC(C)CC(C)C + c1ccccc1
101 kPa, x1 = 0.5
Details | viscosity [mPa·s]
298 K | 0.3825 ± 0.01
318 K | 0.314 ± 0.0085

CC(C)OCCO + CO
298.15 K, 101.33 kPa
Details | viscosity [mPa·s]
x1 = 0.012 | 0.569 ± 0.005
x1 = 0.0276 | 0.602 ± 0.005
x1 = 0.05 | 0.637 ± 0.005
x1 = 0.0732 | 0.684 ± 0.005
x1 = 0.1063 | 0.749 ± 0.005
x1 = 0.1319 | 0.795 ± 0.006
x1 = 0.1558 | 0.842 ± 0.006
x1 = 0.1871 | 0.897 ± 0.006
x1 = 0.2119 | 0.946 ± 0.006
x1 = 0.2575 | 1.036 ± 0.007
x1 = 0.2683 | 1.056 ± 0.007
x1 = 0.3161 | 1.145 ± 0.01
x1 = 0.3643 | 1.235 ± 0.011
x1 = 0.412 | 1.324 ± 0.012
x1 = 0.4685 | 1.415 ± 0.013
x1 = 0.5152 | 1.485 ± 0.014
x1 = 0.5447 | 1.529 ± 0.015
x1 = 0.6149 | 1.624 ± 0.016
x1 = 0.6869 | 1.719 ± 0.018
x1 = 0.7416 | 1.789 ± 0.019
x1 = 0.7775 | 1.832 ± 0.02
x1 = 0.8335 | 1.912 ± 0.022
x1 = 0.8955 | 1.975 ± 0.023
x1 = 0.9189 | 2.003 ± 0.024
x1 = 0.9415 | 2.032 ± 0.025
x1 = 0.9701 | 2.064 ± 0.025

CC(C)OCCO + CC(C)O
298.15 K, 101.33 kPa
Details | viscosity [mPa·s]
x1 = 0.0272 | 2.051 ± 0.016
x1 = 0.0618 | 2.009 ± 0.015
x1 = 0.0768 | 1.995 ± 0.015
x1 = 0.092 | 1.986 ± 0.015
x1 = 0.1373 | 1.959 ± 0.015
x1 = 0.1766 | 1.941 ± 0.015
x1 = 0.2006 | 1.929 ± 0.015
x1 = 0.2467 | 1.914 ± 0.016
x1 = 0.2976 | 1.9 ± 0.016
x1 = 0.3502 | 1.899 ± 0.016
x1 = 0.3949 | 1.902 ± 0.017
x1 = 0.4259 | 1.903 ± 0.017
x1 = 0.4507 | 1.908 ± 0.017
x1 = 0.5015 | 1.918 ± 0.018
x1 = 0.5529 | 1.93 ± 0.019
x1 = 0.6181 | 1.948 ± 0.019
x1 = 0.6764 | 1.971 ± 0.02
x1 = 0.73 | 1.991 ± 0.021
x1 = 0.7886 | 2.014 ± 0.022
x1 = 0.8718 | 2.049 ± 0.024
x1 = 0.9241 | 2.064 ± 0.025
x1 = 0.9782 | 2.083 ± 0.026

CCCCOCCO + CCCCCCCCCCO
101 kPa
Details | viscosity [mPa·s]
303.15 K, x1 = 0.1024 | 8.155 ± 0.18
308.15 K, x1 = 0.7009 | 3.195 ± 0.07

CCOC(=O)CCl + CCCCCCCC
viscosity [mPa·s], 101.33 kPa
Details | x1 = 0.1027 | x1 = 0.2003 | x1 = 0.3048 | x1 = 0.4033 | x1 = 0.5064 | x1 = 0.6021 | x1 = 0.7042 | x1 = 0.8031 | x1 = 0.9017
298.15 K | 0.524 ± 0.008 | 0.553 ± 0.009 | 0.586 ± 0.009 | 0.618 ± 0.011 | 0.666 ± 0.011 | 0.718 ± 0.012 | 0.782 ± 0.014 | 0.855 ± 0.016 | 0.953 ± 0.019
303.15 K | 0.493 ± 0.007 | 0.518 ± 0.008 | 0.551 ± 0.009 | 0.577 ± 0.009 | 0.621 ± 0.01 | 0.669 ± 0.011 | 0.723 ± 0.012 | 0.796 ± 0.013 | 0.884 ± 0.014
308.15 K | 0.465 ± 0.007 | 0.487 ± 0.007 | 0.519 ± 0.008 | 0.541 ± 0.008 | 0.584 ± 0.009 | 0.624 ± 0.01 | 0.676 ± 0.011 | 0.741 ± 0.012 | 0.82 ± 0.013

CCCCCCCCN(CCCCCCCC)CCCCCCCC + CC(CC(C)(C)C)CC(C)(C)C
298.15 K, 101.33 kPa
Details | viscosity [mPa·s]
x1 = 0.052 | 1.424 ± 0.033
x1 = 0.11 | 1.675 ± 0.038
x1 = 0.173 | 1.982 ± 0.044
x1 = 0.527 | 4.26 ± 0.1

CC(C)OCCO + CN1CCCC1=O
298.15 K, 101 kPa
Details | viscosity [mPa·s]
x1 = 0.004 | 1.691 ± 0.02
x1 = 0.0105 | 1.702 ± 0.02
x1 = 0.0362 | 1.729 ± 0.021
x1 = 0.0624 | 1.753 ± 0.021
x1 = 0.088 | 1.764 ± 0.021
x1 = 0.1136 | 1.779 ± 0.022
x1 = 0.1577 | 1.814 ± 0.022
x1 = 0.2017 | 1.843 ± 0.023
x1 = 0.2462 | 1.882 ± 0.023
x1 = 0.3116 | 1.929 ± 0.024
x1 = 0.3451 | 1.955 ± 0.025
x1 = 0.3748 | 1.969 ± 0.025
x1 = 0.4055 | 1.989 ± 0.025
x1 = 0.4494 | 2.011 ± 0.026
x1 = 0.5127 | 2.045 ± 0.027
x1 = 0.5735 | 2.073 ± 0.028
x1 = 0.6423 | 2.096 ± 0.029
x1 = 0.7229 | 2.118 ± 0.03
x1 = 0.7639 | 2.134 ± 0.03
x1 = 0.8354 | 2.127 ± 0.031
x1 = 0.9185 | 2.12 ± 0.031
x1 = 0.9736 | 2.109 ± 0.032
x2 = 0.0086 | 2.107 ± 0.032

CCOC(=O)CCl + Clc1ccccc1
viscosity [mPa·s], 101.3 kPa
Details | x1 = 0.1064 | x1 = 0.2055 | x1 = 0.3 | x1 = 0.3972 | x1 = 0.5005 | x1 = 0.5976 | x1 = 0.6985 | x1 = 0.7953 | x1 = 0.8963
298.15 K | 0.799 ± 0.011 | 0.828 ± 0.011 | 0.858 ± 0.012 | 0.889 ± 0.012 | 0.925 ± 0.012 | 0.959 ± 0.013 | 0.996 ± 0.013 | 1.031 ± 0.014 | 1.064 ± 0.014
303.15 K | 0.752 ± 0.01 | 0.778 ± 0.011 | 0.804 ± 0.011 | 0.834 ± 0.011 | 0.865 ± 0.012 | 0.895 ± 0.012 | 0.927 ± 0.012 | 0.959 ± 0.013 | 0.986 ± 0.013
308.15 K | 0.706 ± 0.01 | 0.728 ± 0.01 | 0.751 ± 0.01 | 0.776 ± 0.011 | 0.804 ± 0.011 | 0.831 ± 0.011 | 0.858 ± 0.012 | 0.885 ± 0.012 | 0.91 ± 0.012

CNC=O + CC(O)CO
viscosity [mPa·s], 101 kPa
Details | x1 = 0.0968 | x1 = 0.1216 | x1 = 0.2366 | x1 = 0.347 | x1 = 0.4526 | x1 = 0.5534 | x1 = 0.6498 | x1 = 0.7432 | x1 = 0.832 | x1 = 0.917
293.15 K | 39.02 ± 0.89 | 36.25 ± 0.83 | 22.68 ± 0.54 | 14.7 ± 0.36 | 9.934 ± 0.25 | 6.941 ± 0.19 | 5.057 ± 0.15 | 3.792 ± 0.11 | 2.933 ± 0.087 | 2.349 ± 0.07
303.15 K | 22.78 ± 0.56 | 21.44 ± 0.52 | 14.24 ± 0.35 | 9.752 ± 0.25 | 6.915 ± 0.19 | 5.053 ± 0.15 | 3.822 ± 0.11 | 2.965 ± 0.088 | 2.363 ± 0.071 | 1.935 ± 0.059
313.15 K | 14.24 ± 0.35 | 13.56 ± 0.34 | 9.479 ± 0.24 | 6.811 ± 0.18 | 5.034 ± 0.14 | 3.819 ± 0.11 | 2.986 ± 0.088 | 2.381 ± 0.071 | 1.949 ± 0.059 | 1.631 ± 0.05
323.15 K | 9.382 ± 0.24 | 9.048 ± 0.23 | 6.609 ± 0.18 | 4.951 ± 0.14 | 3.793 ± 0.11 | 2.97 ± 0.088 | 2.388 ± 0.071 | 1.957 ± 0.059 | 1.635 ± 0.05 | 1.397 ± 0.044
